Experimental data taken from patent US20220023293A1, “EZH2- FGFR INHIBITION IN CANCER” (Stichting Het Nederlands Kanker Instituut-Antoni van …, priority 2018, published 2022).

Assays:
[1] = tested on: BAP1 deficient mesothelioma cells; experiment: short term assay, drug response curve (Alamar blue), 384-well; assay type: cell-based, mouse; conditions: single agent; BNC versus NC derived early passage cell lines; FIG. 4B, 4C
Protocol: For short term colony formation assay, the mesothelioma cell lines were seeded in 500 cells per well in a 384-well plate. The next day drugs (GSK126, AZD4547, AZD2461, ABT-263) were added in a matrix format at the indicated concentration using HP D300 digital dispenser (HP) and cells were grown in presence of drug(s) or DMSO control for 5 days. Thereafter, 10% v/v Alamar blue was added to the well and incubated at 370 C for 4 hours. The plates were read with Tecan reader. The data were analyzed and plotted for drug response curve.

FGF7, FGF2 and FGFR2 = experiment: gene expression analysis (RNA sequencing) after EZH2 inhibitor treatment; assay type: cell-based, mouse; conditions: GSK126 treated versus DMSO treated Bap1 deficient cells; log 2 expression; FIG. 4E
Protocol: For gene expression analysis, RNA was isolated from tumor tissue with the Qiagen All prep DNA/RNA kit. Quantification and quality assessment for RNA were performed with a Bioanalyzer (RIN >6.5) (Agilent, Santa Clara, Calif., USA).
Sequencing libraries were constructed with a TruSeq mRNA Library Preparation Kit using poly-A-enriched RNA (Illumina, San Diego, Calif., USA). The samples were run on a HiSeq 2500 Illumina sequencer for cluster generation and sequencing.
For RNA sequencing and expression analysis, Illumina TruSeq mRNA libraries were sequenced with 51 base single reads on a HiSeq2000 using V3 chemistry (Illumina Inc., San Diego). The sequence reads were mapped to the mouse genome (mm10), using TopHat (2.0.12). TopHat was run with default. Reads with mapping quality less than 10 and non-primary alignments were discarded. Remaining reads were counted using HTSeq-cout. Statistical analysis of the differential expression of genes was performed using DESeq2. Genes with False Discovery Rate (FDR) for differential expression lower than 0.05 were considered significant. Batch effect within tumor samples from different source was corrected using ComBat with default options through the Bioconductor sva package 3.10.

Row | SMILES | drug response of BAP1 deficient versus proficient mesothelioma cells (dose response curve) [1] | expression of FGF/FGFR pathway genes (FGF7, FGF2, FGFR2) (FGF7, FGF2 and FGFR2)
1 | COc1cc(CCc2cc(NC(=O)c3ccc(N4C[C@@H](C)N[C@@H](C)C4)cc3)n[nH]2)cc(OC)c1 [AZD4547, N-[5-[2-(3,5-dimethoxyphenyl)ethyl]-1H-pyrazol-3-yl]-4-[(3R,5S)-3,5-dimethylpiperazin-1-yl]benzamide] | hypersensitive | –
2 | CC[C@H](C)n1cc(C)c2c(C(=O)NCc3c(C)cc(C)[nH]c3=O)cc(-c3ccc(N4CCNCC4)nc3)cc21 [GSK126, 1-[(2S)-butan-2-yl]-N-[(4,6-dimethyl-2-oxo-1H-pyridin-3-yl)methyl]-3-methyl-6-(6-piperazin-1-ylpyridin-3-yl)indole-4-carboxamide] | hypersensitive | upregulation of FGF/FGFR pathway genes
